Data on 25 compounds can be found in patent US9365533B2, “Coumarin derivative” (NIPPON ZOKI PHARMACEUTICAL CO., LTD., priority 2012, dated 2016).

Each structure is given as a SMILES string. Counter-ions that a name gives are not always drawn.

For test [1], the system named is cartilage pieces of bovine metacarpophalangeal joint. Nature of the test: Suppressive action to cartilage destruction: release of sGAG induced by IL-1α from cartilage pieces. The following applies: Bos taurus, 96 h; 25 μmol/L test substance, 2 h pretreatment; human recombinant IL-1α 3 ng/mL; 4 days at 37° C.; read-out: sGAG Releasing Suppressive Rate (%). The test is classed as cell-based. How it is done:
Evaluation of Suppressive Action to Cartilage Destruction [Release of sGAG Induced by Interleukin-1α (IL-1α)]
(1) Incubation of Cartilage Pieces
Each four cartilage pieces of bovine metacarpophalangeal joint were placed in each well of a 48-well plate and pretreated for 2 hours with a basal medium [D-MEM (Dulbecco's Modified Eagle Medium) containing 2 mmol/L of glutamine, 25 mmol/L of Hepes, 100 μg/mL of streptomycin, 100 IU/mL of penicillin and 5.6 μg/mL of amphotericin B] containing 25 μmol/L of a test substance. Human recombinant IL-1α (3 ng/mL) was added thereto followed by incubating at 37° C. for 4 days in a CO2 incubator set at 5 vol % of CO2. Culture supernatant and cartilage pieces were recovered and stored by freezing until the measurement for each of them.
(2) Measurement of the Amount of sGAG and Calculation of the Suppressive Rate for the Release of sGAG
The recovered cartilage pieces were treated with a papain solution [containing 1 mg/mL of papain, 100 mmol/L of sodium phosphate (pH 6.5), 5 mmol/L of L-cysteine and 5 mmol/L of disodium ethylenediaminetetraacetate (EDTA)] at 65° C. for about 16 hours to solubilize. Amount of sGAG in the resulting extract was measured using an sGAG Alcian Blue Binding Kit (Wieslab AB) which is a quantitative kit to which a Alcian blue staining protocol is applied. sGAG in the culture supernatant after the incubation was measured without subjecting to a papain treatment. Each releasing rate of sGAG was determined by the following formula to calculate the suppressive rate for the release of sGAG. Releasing rate (%) of sGAG={(Total sGAG amount in the culture supernatant)/[(Total sGAG amount in the culture supernatant)+(Total sGAG amount in the cartilage pieces)]}×100 Suppressive rate (%) for release of sGAG={[Releasing rate of sGAG (IL-1α stimulation)−Releasing rate of sGAG (Test substance)]/[Releasing rate of sGAG (IL-1α stimulation)−Releasing rate of sGAG (Non-stimulation)]}×100

The test system of the next test is HFLS-OA cells. Nature of the test: Suppressive action to TNF-α-induced proliferation of synovial cells (HFLS-OA), BrdU ELISA. The test is classed as cell-based. To be noted: 200 μmol/L test substance, human recombinant TNF-α 10 ng/mL, 5 days, BrdU incorporation increase by TNF-α = 100%; for activity at 200 µM: Synovial cell, 120 h, read-out: Synovial Cell Proliferation Rate (%). How it is done: Evaluation of Suppressive Action to Cell Proliferation of Synovial Cells (HFLS-OA) Derived from Tissues of Human Osteoarthritis
(1) Incubation of HFLS-OA Cells
HFLS-OA cells were sown onto a 96-well plate so as to make them 10^4 cells/well/100 μL in a D-MEM containing 2 vol % of fetal bovine serum (FBS) and incubated for 24 hours. A test substance (200 μmol/L) and human recombinant TNF-α (10 ng/mL) were added thereto followed by incubating for 5 days.
(2) Measurement of Action to HFLS-OA Cell Proliferation
A kit [Cell Proliferation ELISA, BrdU (colorimetric) (Roche Diagnostics)] was used and measurement was conducted according to the protocol attached to the kit. HFLS-OA cells were incubated for 3 days and 10 μL of 5-bromo-2′-deoxyuridine (BrdU) dissolved in a phosphate buffered saline (PBS) (100 μmol/L, pH 7.4) was added to each well followed by incubating for 48 hours more. After the culture supernatant was removed from each well, 200 μL/well of an immobilization/denaturation solution was added thereto and the mixture was allowed to stand for 30 minutes whereby immobilization of the cells and denaturation of DNA were conducted. After the immobilization/denaturation solution was completely removed, 100 μL of a peroxidase-labeled anti-BrdU antibody solution was added thereto and the mixture was made to react at room temperature for 90 minutes. After washing with PBS, 100 μL of a substrate liquid (tetramethylbenzidine) was added to each well and the absorbance was measured. A cell proliferation rate upon addition of each test substance was calculated where an increase in incorporation of BrdU upon addition of TNF-α was defined as 100% of cell proliferation rate.
In general terms: Uptake of a labelled nucleoside into DNA is a usual measure of proliferation.

Regarding `N#Cc1ccc(S(=O)(=O)Nc2cc3cccc(OS(=O)(=O)c4ccc(C#N)cc4)c3oc2=O)cc1` [Compound 13, 3-[(4-Cyanophenyl)sulfonylamino]-2-oxochromen-8-yl 4-cyanobenzenesulfonate], the inhibition at 25 µM in test [1] came to 44%. Further, the activity at 200 µM with HFLS-OA cells was -54.1%.
With `O=c1oc2c(OS(=O)(=O)c3ccccc3)cccc2cc1NS(=O)(=O)c1ccc(-c2ccccc2)cc1` [Compound 30, 2-Oxo-3-[(4-phenylphenyl)sulfonylamino]chromen-8-yl benzenesulfonate], the inhibition at 25 µM in test [1] was 141%. For the same compound, the activity at 200 µM with HFLS-OA cells is -33%.
In the case of `CS(=O)(=O)Nc1cc2cccc(OS(=O)(=O)c3cccc(Br)c3)c2oc1=O` [Compound 39, 3-(Methanesulfonamide)-2-oxochromen-8-yl 3-bromobenzenesulfonate], the “Synovial Cell Proliferation Rate (%)” value in the test with HFLS-OA cells is reported as −43.0%.
On to `O=c1oc2c(OS(=O)(=O)c3ccc([N+](=O)[O-])cc3)cccc2cc1NS(=O)(=O)c1cccc(C(F)(F)F)c1` [Compound 41, 2-Oxo-3-[[3-(trifluoromethyl)phenyl]sulfonylamino]-chromen-8-yl 4-nitrobenzenesulfonate], for which, in test [1], the inhibition at 25 µM was found to be 172%. In the test with HFLS-OA cells, the activity at 200 µM is -37.7%.
Taken in the same sequence, the figures for `O=c1oc2c(OS(=O)(=O)c3cccc(Br)c3)cccc2cc1NS(=O)(=O)c1ccc(-c2ccccc2)cc1` [Compound 53, 2-Oxo-3-[(4-phenylphenyl)sulfonylamino]chromen-8-yl 3-bromobenzenesulfonate] were 131% and -32.3%.
In the same order, the values of `O=c1oc2c(OS(=O)(=O)c3ccccc3)cccc2cc1NS(=O)(=O)c1cccc(C(F)(F)F)c1` [Compound 28, 2-Oxo-3-[[3-(trifluoromethyl)phenyl]sulfonylamino]-chromen-8-yl benzenesulfonate] are 140% and -33.7%.
Take `O=c1oc2c(OS(=O)(=O)c3ccccc3)cccc2cc1NS(=O)(=O)c1ccc(C(F)(F)F)cc1` [Compound 27, 2-Oxo-3-[[4-(trifluoromethyl)phenyl]sulfonylamino]-chromen-8-yl benzenesulfonate]: the inhibition at 25 µM in test [1] came to 162%. Also, the activity at 200 µM with HFLS-OA cells was -36.3%.
With `O=c1oc2c(OS(=O)(=O)c3cccc([N+](=O)[O-])c3)cccc2cc1NS(=O)(=O)c1cccs1` [Compound 44, 2-Oxo-3-(2-thienylsulfonylamino)chromen-8-yl 3-nitrobenzenesulfonate], the inhibition at 25 µM in test [1] came out at 118%. In addition, in the test on HFLS-OA cells, the activity at 200 µM is -31.5%.
On to `Nc1ccc(S(=O)(=O)Oc2cccc3cc(NS(=O)(=O)c4cccc(C(F)(F)F)c4)c(=O)oc23)cc1` [Compound 46, 2-Oxo-3-[[3-(trifluoromethyl)phenyl]sulfonylamino]-chromen-8-yl 4-aminobenzenesulfonate hydrochloride], for which the inhibition at 25 µM in test [1] is 98%. Moreover, the activity at 200 µM with HFLS-OA cells was -37%.
Regarding `Cc1ccccc1S(=O)(=O)Nc1cc2cccc(OS(=O)(=O)c3ccccc3C)c2oc1=O` [Compound 6, 3-(o-Tolylsulfonylamino)-2-oxochromen-8-yl 2-methyl-benzenesulfonate], in the test with HFLS-OA cells, the activity at 200 µM was -77.4%.
Still for that read-out and setting: the value for `N#Cc1ccccc1S(=O)(=O)Nc1cc2cccc(OS(=O)(=O)c3ccccc3C#N)c2oc1=O` [Compound 15, 3-[(2-Cyanophenyl)sulfonylamino]-2-oxochromen-8-yl 2-cyanobenzenesulfonate] was -3.3%.
With `O=c1oc2c(OS(=O)(=O)c3cccc(Br)c3)cccc2cc1NS(=O)(=O)c1cccnc1` [Compound 38, 2-Oxo-3-(3-pyridylsulfonylamino)chromen-8-yl 3-bromobenzenesulfonate], the inhibition at 25 µM in test [1] turned out to be 67%. Besides, the activity at 200 µM in the test with HFLS-OA cells is -31.2%.
`COc1cccc(S(=O)(=O)Nc2cc3cccc(OS(=O)(=O)c4cccc(OC)c4)c3oc2=O)c1` [Compound 2, 3-[(3-Methoxyphenyl)sulfonylamino]-2-oxochromen-8-yl 3-methoxybenzenesulfonate]: the activity at 200 µM with HFLS-OA cells was -52.2%.
Still for that read-out and setting: for `O=c1oc2c(OS(=O)(=O)c3ccccc3Cl)cccc2cc1NS(=O)(=O)c1ccccc1Cl` [Compound 9, 3-[(2-Chlorophenyl)sulfonylamino]-2-oxochromen-8-yl 2-chlorobenzenesulfonate] the value was -88.8%.
Regarding `O=c1oc2c(OS(=O)(=O)c3ccccc3)cccc2cc1NS(=O)(=O)c1cccc([N+](=O)[O-])c1` [Compound 24, 3-[(3-Nitrophenyl)sulfonylamino]-2-oxochromen-8-yl benzenesulfonate], the inhibition at 25 µM in test [1] was 90%. Moreover, the activity at 200 µM in the test with HFLS-OA cells is -40%.
In the same order, the values of `O=c1oc2c(OS(=O)(=O)c3cccc(C(F)(F)F)c3)cccc2cc1NS(=O)(=O)c1ccc(C(F)(F)F)cc1` [Compound 68, 2-Oxo-3-[[4-(trifluoromethyl)phenyl]sulfonylamino]-chromen-8-yl 3-(trifluoromethyl)benzenesulfonate] are 124% and -42.8%.
Turning to `O=c1oc2c(OS(=O)(=O)c3ccc(F)cc3)cccc2cc1NS(=O)(=O)c1ccc(F)cc1` [Compound 10, 3-[(4-Fluorophenyl)sulfonylamino]-2-oxochromen-8-yl 4-fluorobenzenesulfonate], the activity at 200 µM in the test with HFLS-OA cells was -34.9%.
Still for that read-out and setting: for `Cc1ccc(S(=O)(=O)Nc2cc3cccc(OS(=O)(=O)c4ccc(C)cc4)c3oc2=O)cc1` [Compound 4, 2-Oxo-3-(p-tolylsulfonylamino)chromen-8-yl 4-methyl-benzenesulfonate] the value was -88.1%; for `COc1ccccc1S(=O)(=O)Nc1cc2cccc(OS(=O)(=O)c3ccccc3OC)c2oc1=O` [Compound 3, 3-[(2-Methoxyphenyl)sulfonylamino]-2-oxochromen-8-yl 2-methoxybenzenesulfonate], -65.1%; for `O=c1oc2c(OS(=O)(=O)c3ccc(Cl)cc3)cccc2cc1NS(=O)(=O)c1ccc(Cl)cc1` [Compound 7, 3-[(4-Chlorophenyl)sulfonylamino]-2-oxochromen-8-yl 4-chlorobenzenesulfonate], -92.5%.
Same read-out and setting: the value for `O=c1oc2c(OS(=O)(=O)c3cccc(F)c3)cccc2cc1NS(=O)(=O)c1cccc(F)c1` [Compound 11, 3-[(3-Fluorophenyl)sulfonylamino]-2-oxochromen-8-yl 3-fluorobenzenesulfonate] was -90.6%; that for `O=c1oc2c(OS(=O)(=O)c3cccc(Cl)c3)cccc2cc1NS(=O)(=O)c1cccc(Cl)c1` [Compound 8, 3-[(3-Chlorophenyl)sulfonylamino]-2-oxochromen-8-yl 3-chlorobenzenesulfonate] was -94.4%.
Take `CS(=O)(=O)Nc1cc2cccc(OS(=O)(=O)c3ccccc3)c2oc1=O` [Compound 40, 3-(Methanesulfonamide)-2-oxochromen-8-yl benzene-sulfonate]: in the test on HFLS-OA cells, the “Synovial Cell Proliferation Rate (%)” value is given as −40.5%.
For the compound `O=c1oc2c(OS(=O)(=O)c3ccccc3F)cccc2cc1NS(=O)(=O)c1ccccc1F` [Compound 12, 3-[(2-Fluorophenyl)sulfonylamino]-2-oxochromen-8-yl 2-fluorobenzenesulfonate], the activity at 200 µM in the test on HFLS-OA cells is -91.8%.
On the same count and under the same terms, the value for `Cc1cccc(S(=O)(=O)Nc2cc3cccc(OS(=O)(=O)c4cccc(C)c4)c3oc2=O)c1` [Compound 5, 3-(m-Tolylsulfonylamino)-2-oxochromen-8-yl 3-methyl-benzenesulfonate] was -84.9%.
